According to US20250032447A1, “USE OF UROLITHIN IN THE REMISSION PHASE OF A PRECEDING CANCER THERAPY” (SOCIETE DES PRODUITS NESTLE S.A., priority 2022, published 2025):
Entries after “also recorded” stand apart in the source; their conditions may differ.

Tests used:
[1] = system: MC38 colorectal cancer cells; assay: MC38 tumor challenge in mice fed UroA enriched diet; type: in vivo, C57BL/6 mice
Text: Cell line and in vitro culture: An MC38 colorectal cancer cell line and a B16 cell line were used. The MC38 colorectal cancer cell line (Corbett el al., Can Res, 1975) is a murine colon adenocarcinoma cell line from a C57BL/6 mouse. The cells are adherent and have a fibroblast morphology. MC38 cells will form tumors and metastases post implantation into syngeneic C57BL/6 mice or immunocompromised mice. The B16 melanoma is a murine tumor cell line used for research as a model for human skin cancers. Both MC38 and B16 cancer cell lines are commercially available.
The MC38 colorectal cancer cell line was maintained in RPMI 1640 media (Thermofisher) supplemented with 10% FBS (Gibco), 50 μM beta-mercaptoethanol (Thermofisher), 100 U/ml penicillin/streptomycin (Thermofisher), 1 mM Sodium Pyruvte (Thermofisher).
B57BL/6 mice were purchased from ENVIGO and housed in the animal facility of the University of Lausanne. One week upon arrival mice were fed ad libitum with Urolithin A enriched diet. Urolithin A diet was prepared as follow: 300 mg of Urolithin A (Novalix) was dissolved in DMSO (Applichem) and mixed with 1 kg of “2016 Irradiated Global 16% Rodent diet ground” (ENVIGO) corresponding to a dose of 50 mg/kg/day. For control diet, hereafter named DMSO diet, DMSO (Applichem) was mixed with 1 kg of “2016 Irradiated Global 16% Rodent diet ground” (ENVIGO). The diets were aliquoted in small balls and let them dry under sterile conditions. Mice were fed ad libitum for 4 weeks with DMSO diet or Urolithin A diet before tumor engraftment.
For tumor engraftment, each mouse was injected subcutaneously with 5×10^5 MC38 cancer cells or 1×10^5 B16 cancer cells into the right flank.
For the MC38 and B16 experiments 5 mice received ad libitum DMSO diet, and 5 mice received ad libitum Urolithin A enriched diet for 4 weeks before tumor injection. Mice were sacrificed at humane endpoint as established by the Swiss federal regulation and approved by cantonal authorities. Examples of humane endpoint are: tumor size exceeding […], loss of weight (15% of the previous time point) and sign of distress. […] These mice were named survivor mice.
To test this hypothesis, mice were fed ad libitum with UroA diet (see above, Urolithin A diet) and control diet (DMSO, see above) for 4 weeks. Colorectal cancer cells MC38 were subcutaneously injected in the right flank of the mice (FIG. 1A). Tumor volumes were estimated by using the formula: tumor volume=(length×width×width)/2.

[2] = system: MC38 colorectal cancer cells; assay: MC38 tumor re-challenge of survivor mice; type: in vivo
Text: For re-challenge experiments, survivor mice were removed from the UroA diet and placed in conventional diet (diet provided by the animal facility of University of Lausanne) for one week. During this week one mouse developed tumor and was excluded from the experiment. The remaining 3 mice were subcutaneously injected with 5×10^5 MC38 cancer cells. At the same time, another 5 mice (named control cage) were subcutaneously injected with 5×10^5 MC38 cancer cells. This second tumor injection was done on the left flank of the mouse to discriminate between tumor arising from the first injection from tumor arising from the second, re-challenge, injection.
Then, it was tested whether UroA mediated tumor control was exerted through adaptive immune response. It was assumed as a working hypothesis that memory T cells with antitumoral activity would have been generated in the survivor hosts, which would promptly react against a second tumor graft. To test this hypothesis, survivor mice from the UroA group were injected after 7 weeks with the same cancer cell line (MC38) in the opposite flank (FIG. 2A). To exclude any possible contribution of UroA in tumor growth, the mice survivor mice and a control cage group were kept in conventional food without UroA for one week before tumor injection.

B16 melanoma [3] = assay: B16 melanoma tumor challenge in mice fed UroA enriched diet; type: in vivo, B57BL/6 mice; details: 5 mice; Urolithin A enriched diet ad libitum 4 weeks before B16 injection
Procedure: The B16 cell line were maintained in DMEM+GlutaMAX (Thermofisher) supplemented with 10% FBS (Gibco), and 100 U/ml penicillin/streptomycin (Thermofisher). B57BL/6 mice were purchased from ENVIGO and housed in the animal facility of the University of Lausanne. One week upon arrival mice were fed ad libitum with Urolithin A enriched diet. Urolithin A diet was prepared as follow: 300 mg of Urolithin A (Novalix) was dissolved in DMSO (Applichem) and mixed with 1 kg of “2016 Irradiated Global 16% Rodent diet ground” (ENVIGO) corresponding to a dose of 50 mg/kg/day. For control diet, hereafter named DMSO diet, DMSO (Applichem) was mixed with 1 kg of “2016 Irradiated Global 16% Rodent diet ground” (ENVIGO). The diets were aliquoted in small balls and let them dry under sterile conditions. Mice were fed ad libitum for 4 weeks with DMSO diet or Urolithin A diet before tumor engraftment. For tumor engraftment, each mouse was injected subcutaneously with 5×10^5 MC38 cancer cells or 1×10^5 B16 cancer cells into the right flank. For the MC38 and B16 experiments 5 mice received ad libitum DMSO diet, and 5 mice received ad libitum Urolithin A enriched diet for 4 weeks before tumor injection. Mice were sacrificed at humane endpoint as established by the Swiss federal regulation and approved by cantonal authorities. […]

MC38 cells = assay: MC38 tumor challenge in immunodeficient NSG mice; type: in vivo; details: for effect on tumor growth rate and size: NSG immunodeficient mice, vs DMSO control
Text: To validate that the Urolithin A supplementation enhances the adaptive immune response 5×10^5 MC38 cells were subcutaneously injected in the right flank of the immunodeficient mice NSG (NOD.Cg-Prkdc^sc^i^d II2rg^tm1Wil/SzJ) previously fed with Urolithin A enriched diet for 4 weeks. Tumor volumes were estimated by using the formula: tumor volume=(length×width×width)/2. 5 mice recede the DMSO diet and 5 mice received the Urolithin A enriched diet. Both the 5 mice receiving the DMSO diet and the 5 mice receiving the Urolithin A enriched diet developed tumors.

B16 melanoma [4] = assay: B16 melanoma preventive effect, diet on/off; type: in vivo, B57BL/6 mice; details: day 17, 5×10^5 B16 cells s.c.
Text: To test whether Urolithin A feeding would have a preventive effect by boosting the immune system inventors performed the following experiment. A less immunogenic tumor model B16 melanoma was chosen for this experiment. 10 mice received ad libitum DMSO diet (see above), and 10 mice received ad libitum Urolithin A enriched diet (see above) for 4 weeks. Then 5 mice from DMSO diet were placed in conventional diet (provided by Animal facility), this group was called DMSO on/off. The remaining 5 mice were kept in DMSO diet and named DMSO group. 5 mice from Urolithin diet were placed in conventional diet (provided by Animal facility), this group was called UroA on/off. The remaining 5 mice were kept in […]. After one week, 5×10^5 B16 cells were subcutaneously injected in the right flank of B57BL/6 mice. Tumor engraftment, diet treatment and re-challenge experiments were as described initially in Example 1.

[5] = Initial tests in mice fed diet supplemented with UroA; type: in vivo

With `O=c1oc2cc(O)ccc2c2ccc(O)cc12` [Urolithin A, 3,8-dihydroxyurolithin] the average tumor size ([1]; Exp1, 5 mice, Urolithin A enriched diet ad libitum 4 weeks (50 mg/kg/day) before s.c. injection of 5×10^5 MC38 cells) was 50 mm^3, the “tumor engraftment and growth” value ([1]; Exp1 and Exp2, UroA enriched diet ad libitum vs DMSO diet) was “significantly reduced” and the “mice that developed tumors bigger than 100 mm^3” value ([1]; Exp2, out of 3 mice on Urolithin A enriched diet) was “one”. The “mice that did not develop any tumor” value ([1]; MC38, mice fed Urolithin A diet) was 4 out of 5, the overall survival ([1]; UroA diet compared to DMSO diet, MC38 model) was “improved overall survival” and the “average tumor size upon re-challenge” value ([2]; survivor mice re-injected with MC38 in opposite flank after 7 weeks, conventional food without UroA for one week before injection) was 100 mm^3. The survival upon re-challenge ([2]; survivor mice vs freshly challenged control cage group, listed as UroA) was “better tumor control capacity and survival; also recorded: improved overall survival”, the average tumor size (B16 melanoma [3]) was 70 mm^3 and the “effect on tumor growth rate and size” value (MC38 cells) was “no change in tumors growth rate and volume”. The “effect on tumor growth rate and size” value (MC38 cells; listed as UroA) was “no effect on tumor size”, the tumor size at last timepoint (MC38 cells; day 18, NSG mice, Urolithin A enriched diet 4 weeks, 5×10^5 MC38 cells s.c.) was 1000 mm³ and the average tumor size (B16 melanoma [4]; UroA group (kept on diet)) was 200 mm^3. For the same molecule, the average tumor size (B16 melanoma [4]; UroA on/off group (4 weeks diet, then conventional diet one week before injection)) was 200 mm^3, the “overall quality of HSCs” value [5] was “increased” and the splenocytes count [5] was “increased”.
